Here are results for six compounds from patent US20210221822A1, “TRICYCLIC DERIVATIVES INHIBITOR, PREPARATION METHOD, AND APPLICATIONS THEREOF” (Jiangsu Hansoh Pharmaceutical Group Co., Ltd., priority 2018, published 2021).

For one data set, the target named is T1, PI3Kδ (Homo sapiens, UniProt O00329).
T1 construct: purchased Carna 11-103
In words: ADP-Glo lipid kinase assay, PI3Kδ kinase activity. The class given is biochemical. Conditions: 0.1 nM enzyme, 90 min, 100 μM ATP. As for the experimental part: (§1) Experimental method: Promega's ADP-Glo lipid kinase assay method (Promega #V9102) was applied in this experiment. Lipid kinase PI3Kα/β/γ/δ catalyzed the generation of ADP from ATP in the presence of the substrate PIP2: 3PS and ATP. The lipid kinase activity was characterized by measuring the ADP content in the reaction, and the half inhibitory concentration IC50 of the compound on inhibiting PI3Kα/β/γ/δ kinase activity was thus obtained.
(§2) The kinase reaction was carried out in a white 384-well plate (Perkin Elmer #6007299). 2 μL of the compound solution of different concentrations diluted with ddH2O containing 1% DMSO was added to each well. 2 μL of ddH2O containing 1% DMSO was added to the positive control well. 2 μL of 0.1-2 nM PI3K kinase solution diluted with 5× kinase buffer (HEPES 250 mM, MgCl2 15 mM, NaCl 250 mM, BSA 0.05%) was added to each well. 2 μL of 5× kinase buffer was added to the negative control well. 4 μL of 50 μM substrate PIP2: 3PS (Promega #V1701) formulated with 10× Dilution buffer and ddH2O was added to all wells. Finally, 2 μL of […] ATP solution diluted with water was added to start the reaction. After the reaction was carried out at room temperature for 90 to 120 minutes, 10 μL of ADP-Glo Reagent (containing 10 mM MgCl2) was added to each well, and reacted at room temperature for 60 minutes to remove excess ATP in the reaction. 20 μL of Kinase Detection Reagent was added to each well, and reacted at room temperature in the dark for 20 minutes. The chemiluminescence value was measured by the BioTek Synergy H1 microplate reader.
(§3) The percentage inhibition data of the compound-treated well was calculated through the positive control well (DMSO control well) and negative control well (no kinase added) on the plate {% inhibition rate=100−[(test compound value−negative control value)]/(positive control value−negative control value)×100}. The IC50 value was calculated by fitting the data of different concentrations and corresponding percentage inhibition rates to a four-parameter nonlinear logic formula with GraphPad prism.

For a further data set, the target named is T2, PI3Kα (Homo sapiens, UniProt P42336).
T2 construct: purchased Promega V1721
T2 sequence (P42336 whole entry): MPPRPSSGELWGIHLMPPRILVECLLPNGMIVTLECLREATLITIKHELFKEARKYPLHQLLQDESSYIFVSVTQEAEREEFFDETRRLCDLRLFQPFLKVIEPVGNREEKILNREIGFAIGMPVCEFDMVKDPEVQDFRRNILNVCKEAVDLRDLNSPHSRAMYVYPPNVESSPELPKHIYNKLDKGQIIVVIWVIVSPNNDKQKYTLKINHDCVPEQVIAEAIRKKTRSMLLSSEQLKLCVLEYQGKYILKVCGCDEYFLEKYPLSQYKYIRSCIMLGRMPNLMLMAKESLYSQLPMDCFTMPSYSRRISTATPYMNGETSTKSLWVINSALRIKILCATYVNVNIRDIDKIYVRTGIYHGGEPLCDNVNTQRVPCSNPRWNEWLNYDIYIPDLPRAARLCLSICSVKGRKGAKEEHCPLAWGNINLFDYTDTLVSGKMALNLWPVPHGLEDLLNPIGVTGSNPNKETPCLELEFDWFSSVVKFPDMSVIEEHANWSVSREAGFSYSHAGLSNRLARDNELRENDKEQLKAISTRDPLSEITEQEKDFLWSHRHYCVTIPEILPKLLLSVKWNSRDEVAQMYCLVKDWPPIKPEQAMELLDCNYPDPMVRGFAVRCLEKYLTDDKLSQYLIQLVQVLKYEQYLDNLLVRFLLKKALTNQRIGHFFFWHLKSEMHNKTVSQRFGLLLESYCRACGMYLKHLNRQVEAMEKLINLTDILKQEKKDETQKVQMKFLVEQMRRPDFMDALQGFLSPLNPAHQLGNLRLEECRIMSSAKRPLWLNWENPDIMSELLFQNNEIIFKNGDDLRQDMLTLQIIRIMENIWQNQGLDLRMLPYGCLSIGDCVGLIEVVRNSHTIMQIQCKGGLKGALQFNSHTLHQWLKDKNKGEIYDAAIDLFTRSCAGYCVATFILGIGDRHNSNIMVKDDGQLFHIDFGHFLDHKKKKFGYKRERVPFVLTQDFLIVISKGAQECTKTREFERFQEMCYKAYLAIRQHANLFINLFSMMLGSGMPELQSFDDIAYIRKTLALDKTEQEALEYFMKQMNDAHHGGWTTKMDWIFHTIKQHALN
T2 sequence (P27986 whole entry partner): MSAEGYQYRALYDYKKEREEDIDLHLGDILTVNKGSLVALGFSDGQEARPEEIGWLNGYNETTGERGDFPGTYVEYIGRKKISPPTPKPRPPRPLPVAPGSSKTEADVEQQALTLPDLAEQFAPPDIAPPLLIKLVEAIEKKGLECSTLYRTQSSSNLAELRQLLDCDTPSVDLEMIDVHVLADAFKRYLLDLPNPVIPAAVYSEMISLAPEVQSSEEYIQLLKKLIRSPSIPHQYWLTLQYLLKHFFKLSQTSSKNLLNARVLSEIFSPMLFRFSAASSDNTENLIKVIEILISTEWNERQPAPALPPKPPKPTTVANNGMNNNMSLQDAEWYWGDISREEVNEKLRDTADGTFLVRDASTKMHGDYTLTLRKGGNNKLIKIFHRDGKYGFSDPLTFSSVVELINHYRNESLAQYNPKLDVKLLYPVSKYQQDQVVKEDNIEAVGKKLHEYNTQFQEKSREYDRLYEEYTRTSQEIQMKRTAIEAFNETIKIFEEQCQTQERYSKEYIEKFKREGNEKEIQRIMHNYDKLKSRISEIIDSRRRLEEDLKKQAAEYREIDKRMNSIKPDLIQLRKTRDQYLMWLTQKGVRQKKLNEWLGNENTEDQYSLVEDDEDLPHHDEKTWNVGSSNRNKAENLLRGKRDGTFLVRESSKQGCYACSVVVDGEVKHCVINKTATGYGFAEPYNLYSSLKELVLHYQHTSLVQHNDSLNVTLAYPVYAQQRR
The data set is described as follows: ADP-Glo lipid kinase assay, PI3Kα kinase activity. The class given is biochemical. The note with it: for IC50: ADP-Glo, 0.1 nM enzyme, 120 min, 50 μM ATP. As for the experimental part: as §1, §2, §3

The next data set addresses T3, PI3Kγ (Homo sapiens, UniProt P48736).
T3 construct: purchased Thermofisher PV4786
In words: ADP-Glo lipid kinase assay, PI3Kγ kinase activity. The class given is biochemical. Conditions: 0.4 nM enzyme, 120 min, 50 μM ATP. How it is done: as §1, §2, §3

Another data set addresses T4, PI3Kβ (Homo sapiens, UniProt P42338).
T4 construct: purchased Carna 11-102
The data set is described as follows: ADP-Glo lipid kinase assay, PI3Kβ kinase activity. The class given is biochemical. Conditions: 0.4 nM enzyme, 90 min, 100 μM ATP. How it is done: as §1, §2, §3

The nature of data set [1]: Pharmacokinetic (PK) assay in mice. The class given is in vivo. The note with it: male, Balb/c, mouse, plasma, po, single intragastric 5 mg/kg; for AUC(0-t): read-out: Area under curve AUC0-t; for AUC(0-inf): read-out: Area under curve AUC0-∞; for half-life: read-out: Half-life t1/2(h) (converted); for MRT: read-out: Mean residence time MRT; for Tmax: read-out: Peak time tmax; for Cmax: read-out: Plasma concentration Cmax. How it is done: The pharmacokinetic assay of the preferred compounds of the examples of the present invention in mice was carried out in Balb/c male mice (Shanghai Jiesijie Laboratory Animal Co., LTD). • Administration mode: single intragastric administration. • Administration dose: 5 mg/10 ml/kg (body weight). • Formulation: the compound was dissolved in 0.5% CMC-Na by ultrasound to obtain a clear solution or homogeneous suspension. • Sampling points: 0.5, 1, 2, 4, 6, 8 and 24 hours after administration. • Sample process: • 1) 0.1 mL of blood was taken from the orbit, placed in a K2-EDTA tube, and centrifuged for 5 to 20 minutes at room temperature at 1000 to 3000×g to separate the plasma, which was then stored at −80° C. • 2) 160 uL of acetonitrile was added to 40 uL of plasma sample for precipitation, and then the mixture was centrifuged for 5 to 20 minutes at 500 to 2000×g. • 3) 100 uL of processed supernatant was taken and analyzed by LC/MS/MS assay to determine the concentration of the test compound. • LC-MS/MS assay: • Liquid chromatography condition: Shimadzu LC-20AD pump • Mass spectrometry condition: AB Sciex API 4000 mass spectrometer • Chromatographic column: phenomenex Gemiu 5 μm C18 50×4.6 mm • Mobile phase: solution A was 0.1% aqueous formic acid solution, and solution B was acetonitrile • Flow rate: 0.8 mL/min • Elution time: 0-4 minutes gradient elution • Pharmacokinetics: […]
The main parameters were calculated using WinNonlin 6.1.

T3 sequence (P48736 whole entry): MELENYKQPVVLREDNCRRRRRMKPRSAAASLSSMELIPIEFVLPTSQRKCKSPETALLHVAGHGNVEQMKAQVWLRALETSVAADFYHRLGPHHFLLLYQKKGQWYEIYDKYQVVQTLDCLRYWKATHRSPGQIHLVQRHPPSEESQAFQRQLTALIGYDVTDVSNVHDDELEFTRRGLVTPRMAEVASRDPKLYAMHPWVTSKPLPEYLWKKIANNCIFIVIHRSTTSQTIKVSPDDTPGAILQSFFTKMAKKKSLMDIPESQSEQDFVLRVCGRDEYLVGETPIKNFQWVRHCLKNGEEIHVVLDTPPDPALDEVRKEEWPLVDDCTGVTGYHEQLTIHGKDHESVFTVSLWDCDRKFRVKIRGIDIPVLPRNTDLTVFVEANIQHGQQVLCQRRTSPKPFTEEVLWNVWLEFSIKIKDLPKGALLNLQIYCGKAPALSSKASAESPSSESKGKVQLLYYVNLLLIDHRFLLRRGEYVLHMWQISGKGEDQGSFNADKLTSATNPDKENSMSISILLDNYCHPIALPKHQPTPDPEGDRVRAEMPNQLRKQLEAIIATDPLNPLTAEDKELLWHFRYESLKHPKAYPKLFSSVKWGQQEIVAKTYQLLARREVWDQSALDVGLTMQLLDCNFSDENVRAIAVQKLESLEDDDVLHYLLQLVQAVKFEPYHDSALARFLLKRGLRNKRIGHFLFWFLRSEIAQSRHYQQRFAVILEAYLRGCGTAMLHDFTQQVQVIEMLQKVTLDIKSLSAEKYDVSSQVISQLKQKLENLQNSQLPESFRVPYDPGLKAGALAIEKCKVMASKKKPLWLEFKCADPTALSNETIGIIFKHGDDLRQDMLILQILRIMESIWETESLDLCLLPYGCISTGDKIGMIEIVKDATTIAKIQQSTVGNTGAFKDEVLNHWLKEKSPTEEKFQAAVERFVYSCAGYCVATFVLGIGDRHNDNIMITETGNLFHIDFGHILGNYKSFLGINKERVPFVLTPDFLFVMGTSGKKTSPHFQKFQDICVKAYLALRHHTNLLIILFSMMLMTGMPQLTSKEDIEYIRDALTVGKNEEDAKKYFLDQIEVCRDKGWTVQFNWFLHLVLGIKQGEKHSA
T4 sequence (P42338 whole entry): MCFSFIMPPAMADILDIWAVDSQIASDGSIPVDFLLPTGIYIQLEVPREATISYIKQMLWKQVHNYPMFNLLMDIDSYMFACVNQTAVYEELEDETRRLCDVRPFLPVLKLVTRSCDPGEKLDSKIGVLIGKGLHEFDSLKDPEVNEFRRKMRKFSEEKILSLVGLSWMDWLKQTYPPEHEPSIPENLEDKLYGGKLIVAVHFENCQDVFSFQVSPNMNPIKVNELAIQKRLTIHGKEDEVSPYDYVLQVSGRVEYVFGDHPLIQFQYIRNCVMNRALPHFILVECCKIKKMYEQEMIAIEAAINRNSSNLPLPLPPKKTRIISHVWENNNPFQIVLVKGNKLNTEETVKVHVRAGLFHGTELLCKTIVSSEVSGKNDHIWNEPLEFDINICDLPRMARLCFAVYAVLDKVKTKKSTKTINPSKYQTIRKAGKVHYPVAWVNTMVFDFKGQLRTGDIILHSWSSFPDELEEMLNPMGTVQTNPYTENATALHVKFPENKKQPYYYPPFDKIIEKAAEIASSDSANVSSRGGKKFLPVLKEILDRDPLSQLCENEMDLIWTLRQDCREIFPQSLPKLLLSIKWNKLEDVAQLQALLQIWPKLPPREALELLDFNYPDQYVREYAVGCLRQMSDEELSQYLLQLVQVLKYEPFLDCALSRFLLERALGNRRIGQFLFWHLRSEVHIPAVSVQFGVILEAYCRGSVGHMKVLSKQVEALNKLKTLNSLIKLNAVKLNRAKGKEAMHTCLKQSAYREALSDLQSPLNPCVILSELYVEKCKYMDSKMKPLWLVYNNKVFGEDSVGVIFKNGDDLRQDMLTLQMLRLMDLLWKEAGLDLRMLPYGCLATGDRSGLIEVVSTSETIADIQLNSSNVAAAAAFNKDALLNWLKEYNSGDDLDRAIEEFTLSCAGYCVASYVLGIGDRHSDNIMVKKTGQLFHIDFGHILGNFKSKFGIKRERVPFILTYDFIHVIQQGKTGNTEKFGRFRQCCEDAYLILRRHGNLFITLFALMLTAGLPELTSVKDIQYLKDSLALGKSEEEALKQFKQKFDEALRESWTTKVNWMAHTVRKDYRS
T4 sequence (P27986 whole entry partner): as the sequence (P27986 whole entry partner) above
T1 sequence (O00329 whole entry): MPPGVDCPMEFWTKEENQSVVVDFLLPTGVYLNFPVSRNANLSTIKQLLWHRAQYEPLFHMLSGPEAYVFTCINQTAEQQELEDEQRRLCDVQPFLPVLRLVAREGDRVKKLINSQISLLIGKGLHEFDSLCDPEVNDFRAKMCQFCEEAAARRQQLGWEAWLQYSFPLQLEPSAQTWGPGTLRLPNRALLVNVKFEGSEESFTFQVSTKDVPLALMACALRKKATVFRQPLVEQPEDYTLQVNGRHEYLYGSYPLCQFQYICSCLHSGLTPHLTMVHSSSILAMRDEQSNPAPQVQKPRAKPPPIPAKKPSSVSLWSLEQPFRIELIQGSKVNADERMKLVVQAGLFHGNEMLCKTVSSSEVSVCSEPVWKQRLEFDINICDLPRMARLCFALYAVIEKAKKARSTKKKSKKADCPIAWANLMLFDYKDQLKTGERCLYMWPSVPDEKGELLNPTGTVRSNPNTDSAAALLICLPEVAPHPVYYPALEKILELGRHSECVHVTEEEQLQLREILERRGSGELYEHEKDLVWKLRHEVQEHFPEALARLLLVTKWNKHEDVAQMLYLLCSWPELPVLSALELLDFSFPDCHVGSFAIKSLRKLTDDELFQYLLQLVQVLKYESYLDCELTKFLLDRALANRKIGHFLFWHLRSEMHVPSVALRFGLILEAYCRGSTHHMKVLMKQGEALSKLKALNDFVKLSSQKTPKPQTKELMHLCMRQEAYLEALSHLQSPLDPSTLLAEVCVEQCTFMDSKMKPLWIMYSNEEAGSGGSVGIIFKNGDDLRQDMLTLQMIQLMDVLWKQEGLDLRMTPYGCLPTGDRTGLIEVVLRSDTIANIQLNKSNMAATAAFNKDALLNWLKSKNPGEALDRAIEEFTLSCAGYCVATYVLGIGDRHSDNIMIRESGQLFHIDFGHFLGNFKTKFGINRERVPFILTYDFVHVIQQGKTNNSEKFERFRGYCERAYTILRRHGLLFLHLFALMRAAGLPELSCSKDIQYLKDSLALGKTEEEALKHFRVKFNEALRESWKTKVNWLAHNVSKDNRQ
T1 sequence (P27986 whole entry partner): as the sequence (P27986 whole entry partner) above

Regarding `COC[C@H](Nc1ccc2c(c1)OCCn1cc(N3C(=O)SC[C@H]3C(F)F)nc1-2)C(N)=O` [Example 110, (S)-2-((2-((R)-4-(difluoromethyl)-2-oxothiazolidin-3-yl)-5,6-dihydrobenzo[f]imidazo[1,2-d][1,4]oxazepin-9-yl)amino)-3-methoxypropanamide], at PI3Kδ, the 50% inhibitory concentration (IC50) was 0.139 µM. Further, on PI3Kα, the IC50 worked out at 0.001 µM. On PI3Kγ, the IC50 came out at 0.376 µM. The half-maximal inhibitory concentration (IC50) on PI3Kβ is 0.754 µM. In data set [1], the AUC(0-t) amounted to 13700 ng·h/mL, the AUC(0-inf) was 13700 ng·h/mL, the half-life is 2.8 h and the MRT was 3.7 h. Moreover, in data set [1], the time to peak (Tmax) stood at 0.5 h and the Cmax stood at 4020 ng/mL.
In the case of `C[C@H](Nc1ccc2c(c1)OCCn1cc(N3C(=O)N(C)C[C@H]3C(F)F)nc1-2)C(N)=O` [Example 53, (S)-2-((2-((S)-5-(difluoromethyl)-3-methyl-2-oxoimidazolidin-1-yl)-5,6-dihydrobenzo[f]imidazo[1,2-d][1,4]oxazepin-9-yl)amino)propanamide], on PI3Kδ, the IC50 came to 0.373 µM. On PI3Kα, the half-maximal inhibitory concentration (IC50) was determined as 0.005 µM. In addition, the “Selectivity of PI3Kα vs PI3Kγ” value at PI3Kα (ratio of IC50 PI3Kγ to IC50 PI3Kα) came to 80. For the same compound, on PI3Kγ, the IC50 worked out at 0.402 µM. Further, the 50% inhibitory concentration (IC50) at PI3Kβ is 6.19 µM. For the same compound, in data set [1], the AUC(0-t) worked out at 1280 ng·h/mL, the AUC(0-inf) came out at 1290 ng·h/mL, the half-life is 0.8 h and the MRT worked out at 1.2 h. Moreover, in data set [1], the Tmax turned out to be 0.5 h and the Cmax turned out to be 1090 ng/mL.
Take `C[C@H](Nc1ccc2c(c1F)OCCn1cc(N3C(=O)OC[C@H]3C(F)F)nc1-2)C(N)=O` [Example 77, (S)-2-((2-((S)-4-(Difluoromethyl)-2-oxooxazolidin-3-yl)-8-fluoro-5,6-dihydrobenzo[f]imidazo[1,2-d][1,4]oxazepin-9-yl)amino)propanamide]: the IC50 on PI3Kδ stood at 0.306 µM. In addition, the IC50 on PI3Kα came to 0.0052 µM. Further, on PI3Kγ, the IC50 was 0.45 µM. Moreover, the IC50 at PI3Kβ amounted to 0.924 µM. For the same compound, in data set [1], the AUC(0-t) was found to be 4090 ng·h/mL, the AUC(0-inf) is 4120 ng·h/mL, the half-life is 1.2 h and the MRT was determined as 1.7 h. Also, in data set [1], the time to peak (Tmax) was determined as 0.5 h and the Cmax was found to be 2300 ng/mL.
In the case of `C[C@H](Nc1ccc2c(c1)OCCn1cc(N3C(=O)O[C@H](C)[C@H]3C(F)F)nc1-2)C(N)=O` [Example 54, (S)-2-((2-((4S,5R)-4-(difluoromethyl)-5-methyl-2-oxooxazolidin-3-yl)-5,6-dihydrobenzo[f]imidazo[1,2-d][1,4]oxazepin-9-yl)amino)propanamide], the IC50 at PI3Kδ was found to be 0.336 µM. Further, the IC50 at PI3Kα was found to be 0.0012 µM. In addition, the IC50 at PI3Kγ stood at 0.481 µM. At PI3Kβ, the IC50 came out at 1.8 µM. Moreover, in data set [1], the AUC(0-t) turned out to be 1560 ng·h/mL, the AUC(0-inf) turned out to be 1620 ng·h/mL, the half-life was 1.8 h and the MRT was 2 h. For the same compound, in data set [1], the Tmax was found to be 1 h and the Cmax was 832 ng/mL.
For the compound `C[C@@H](C(N)=O)N(C)c1ccc2c(c1)OCCn1cc(N3C(=O)OC[C@H]3C(F)F)nc1-2` [Example 43, (S)-2-((2-((S)-4-(difluoromethyl)-2-oxooxazolidin-3-yl)-5,6-dihydrobenzo[f]imidazo[1,2-d][1,4]oxazepin-9-yl)(methyl)amino)propanamide], the IC50 on PI3Kδ is 0.025 µM. Also, the half-inhibitory concentration (IC50) on PI3Kα is 0.00086 µM. Besides, the IC50 on PI3Kγ is 0.557 µM. In addition, the IC50 at PI3Kβ is 0.283 µM. Further, in data set [1], the AUC(0-t) came out at 3440 ng·h/mL, the AUC(0-inf) came out at 3500 ng·h/mL, the half-life is 1 h and the mean residence time (MRT) stood at 1.8 h. In data set [1], the Tmax turned out to be 0.5 h and the Cmax was 2060 ng/mL.
With `NC(=O)[C@@H]1CCCN1c1ccc2c(c1)OCCn1cc(N3C(=O)SC[C@H]3C(F)F)nc1-2` [Example 111, (S)-1-(2-((R)-4-(difluoromethyl)-2-oxothiazolidin-3-yl)-5,6-dihydrobenzo[f]imidazo[1,2-d][1,4]oxazepin-9-yl)pyrrolidine-2-carboxamide], the IC50 on PI3Kδ amounted to 0.125 µM. The half-inhibitory concentration (IC50) on PI3Kα stood at 0.0029 µM. The half-maximal inhibitory concentration (IC50) on PI3Kγ was 0.736 µM. Moreover, the IC50 on PI3Kβ stood at 1.23 µM. For the same compound, in data set [1], the AUC(0-t) stood at 1740 ng·h/mL, the AUC(0-inf) amounted to 1740 ng·h/mL, the half-life was 2.8 h and the mean residence time (MRT) came out at 3.9 h. In data set [1], the time of peak concentration (Tmax) came out at 0.5 h and the Cmax is 466 ng/mL.
